Results published in ChEMBL document CHEMBL4837235, “Cyclic Imine Pinnatoxin G is Cytotoxic to Cancer Cell Lines via Nicotinic Acetylcholine Receptor-Driven Classical Apoptosis” (2021).
Active and inactive are the calls of the source. The calls are words filed in the database; no cut-off is given here.

Tests used:
PC-3 [1] = assay: Cytotoxicity against human PC-3 cells assessed as reduction in cell viability at 5 uM after 24 hrs by MTT assay; format: functional, cell-based
PC-3 [2] = assay: Induction of apoptosis in human PC-3 cells assessed as caspase activation using Ac-DEVD-AMC as substrate at 5 uM measured after 72 hrs by fluorometric assay relative to control; format: functional
HT-29 [3] = assay: Cytotoxicity against human HT-29 cells assessed as reduction in cell viability at 5 uM after 72 hrs by MTT assay; format: functional
HT-29 [4] = assay: Cytotoxicity against human HT-29 cells assessed as reduction in cell viability at 5 uM after 24 to 72 hrs by MTT assay; format: functional, cell-based; conditions: time 24-72 hrs
MDA-MB-231 [5] = assay: Induction of mitochondrial membrane permeability in human MDA-MB-231 cells assessed as mitochondrial membrane permeability at 5 uM measured after 72 hrs by TMRE staining based analysis (reference value: 7%); format: functional
HT-29 [6] = assay: Cell cycle arrest in human HT-29 cells assessed as accumulation of cells at subG1 phase at 5 uM after 72 hrs by propidium iodide staining based flow cytometric analysis (reference value: 1.9+/- 0.1%); format: functional
[7] = Cytotoxicity against human U373 cells assessed as reduction in cell viability at 5 uM after 72 hrs by MTT assay; format: functional, U-373MG ATCC; conditions: U373 MG
[8] = biological target: T1, Neuronal acetylcholine receptor (Homo sapiens) (UniProt P17787+P30926+P32297+P43681+Q15822+Q9UGM1+Q15825+P30532+P36544+Q9GZZ6+Q05901); assay: Antagonist activity at nAChR in human HT-29 cells assessed as reduction in cytoplasmic free calcium level at 5 uM measured upto 6 hrs by Fura2-AM dye based fluorescence assay; format: cell-based; conditions: time hrs <=6
PC-3 [9] = assay: Cell cycle arrest in human PC-3 cells assessed as accumulation of cells at subG1 phase at 5 uM after 72 hrs by propidium iodide staining based flow cytometric analysis (reference value: 3.7+/- 0.2%); format: functional
HT-29 [10] = assay: Induction of mitochondrial membrane permeability in human HT-29 cells assessed as mitochondrial membrane permeability at 5 uM measured after 72 hrs by TMRE staining based analysis (reference value: 7%); format: functional
N2a = assay: Cytotoxicity against mouse Neuro2a cells assessed as cell viability at 0.46 uM measured after 72 hrs by MTT assay; format: functional, cell-based
Caco-2 = assay: Cytotoxicity against human Caco-2 cells assessed as cell viability at 0.46 uM measured after 72 hrs by MTT assay; format: functional, cell-based
HT-29 [11] = assay: Induction of apoptosis in human HT-29 cells assessed as caspase activation using Ac-DEVD-AMC as substrate at 5 uM measured after 72 hrs by fluorometric assay relative to control; format: functional
MDA-MB-231 [12] = assay: Cytotoxicity against human MDA-MB-231 cells assessed as reduction in cell viability at 5 uM after 72 hrs by MTT assay; format: functional
PC-3 [13] = assay: Induction of mitochondrial membrane permeability in human PC-3 cells assessed as mitochondrial membrane permeability at 5 uM measured after 72 hrs by TMRE staining based analysis (reference value: 7%); format: functional
MDA-MB-231 [14] = assay: Induction of apoptosis in human MDA-MB-231 cells assessed as early apoptosis at 5 uM measured after 72 hrs by AnnexinV/propidium iodide staining based flow cytometry; format: functional
U-87 MG [15] = assay: Cytotoxicity against human U87 cells assessed as reduction in cell viability at 5 uM after 24 to 72 hrs by MTT assay; format: functional, cell-based; conditions: U-87MG ATCC, time 24-72 hrs
LN-18 [16] = assay: Cytotoxicity against human LN-18 cells assessed as reduction in cell viability at 5 uM after 72 hrs by MTT assay; format: functional
U-87 MG [17] = assay: Cytotoxicity against human U87 cells assessed as reduction in cell viability at 5 uM after 72 hrs by MTT assay; format: functional, U-87MG ATCC
MDA-MB-231 [18] = assay: Cell cycle arrest in human MDA-MB-231 cells assessed as accumulation of cells at G0/G1 phase at 5 uM after 72 hrs by propidium iodide staining based flow cytometric analysis (reference value: 57.7+/- 0.6%); format: functional
LN-18 [19] = assay: Cytotoxicity against human LN-18 cells assessed as reduction in cell viability at 5 uM after 24 to 72 hrs by MTT assay; format: functional, cell-based; conditions: time 24-72 hrs
PC-3 [20] = assay: Cytotoxicity against human PC-3 cells assessed as reduction in cell viability at 5 uM after 48 to 72 hrs by MTT assay; format: functional, cell-based; conditions: time 48-72 hrs
HeLa = assay: Cytotoxicity against human HeLa cells assessed as loss of cell viability at 5.76 uM measured after 72 hrs by MTT assay; format: functional
MDA-MB-231 [21] = assay: Cytotoxicity against human MDA-MB-231 cells assessed as reduction in cell viability at 5 uM after 24 hrs by MTT assay; format: functional, cell-based
PC-3 [22] = assay: Cell cycle arrest in human PC-3 cells assessed as accumulation of cells at G0/G1 phase at 5 uM after 72 hrs by propidium iodide staining based flow cytometric analysis (reference value: 59.7+/- 0.2%); format: functional
HT-29 [23] = assay: Induction of apoptosis in human HT-29 cells assessed as early apoptosis at 5 uM measured after 72 hrs by AnnexinV/propidium iodide staining based flow cytometry; format: functional
MDA-MB-231 [24] = assay: Cytotoxicity against human MDA-MB-231 cells assessed as reduction in cell viability at 5 uM after 48 to 72 hrs by MTT assay; format: functional, cell-based; conditions: time 48-72 hrs
HT-29 [25] = assay: Cell cycle arrest in human HT-29 cells assessed as accumulation of cells at G2/M phase at 5 uM after 72 hrs by propidium iodide staining based flow cytometric analysis (reference value: 22.3+/- 0.4%); format: functional
HT-29 [26] = assay: Cell cycle arrest in human HT-29 cells assessed as accumulation of cells at S phase at 5 uM after 72 hrs by propidium iodide staining based flow cytometric analysis (reference value: 5.3+/- 0.4%); format: functional
MDA-MB-231 [27] = assay: Induction of apoptosis in human MDA-MB-231 cells assessed as caspase activation using Ac-DEVD-AMC as substrate at 5 uM measured after 72 hrs by fluorometric assay relative to control; format: functional
PC-3 [28] = assay: Cytotoxicity against human PC-3 cells assessed as reduction in cell viability at 5 uM after 72 hrs by MTT assay; format: functional
[29] = biological target: T1, Neuronal acetylcholine receptor (Homo sapiens); assay: Antagonist activity at nAChR in human PC-3 cells assessed as reduction in cytoplasmic free calcium level at 5 uM measured upto 6 hrs by Fura2-AM dye based fluorescence assay; format: cell-based; conditions: time hrs <=6
MDA-MB-231 [30] = assay: Cell cycle arrest in human MDA-MB-231 cells assessed as accumulation of cells at subG1 phase at 5 uM after 72 hrs by propidium iodide staining based flow cytometric analysis (reference value: 1.1+/- 0.1%); format: functional
[31] = biological target: T1, Neuronal acetylcholine receptor (Homo sapiens); assay: Antagonist activity at nAChR in human MDA-MB-231 cells assessed as reduction cytoplasmic free calcium level at 5 uM measured upto 6 hrs by Fura2-AM dye based fluorescence assay; format: cell-based; conditions: time hrs <=6
PC-3 [32] = assay: Cell cycle arrest in human PC-3 cells assessed as decrease in accumulation of cells at G2/M phase at 5 uM after 72 hrs by propidium iodide staining based flow cytometric analysis; format: functional
MDA-MB-231 [33] = assay: Cell cycle arrest in human MDA-MB-231 cells assessed as decrease in accumulation of cells at G2/M phase at 5 uM after 72 hrs by propidium iodide staining based flow cytometric analysis; format: functional
U-373MG ATCC = assay: Cytotoxicity against human U373 cells assessed as reduction in cell viability at 5 uM after 24 to 72 hrs by MTT assay; format: functional, cell-based; conditions: time 24-72 hrs
PC-3 [34] = assay: Induction of apoptosis in human PC-3 cells assessed as early apoptosis at 5 uM measured after 72 hrs by AnnexinV/propidium iodide staining based flow cytometry; format: functional

C=CC1=C[C@@H]2[C@@H]3O[C@]4(C[C@H]5CCC[C@@]6(CC[C@@]7(O[C@@H](CC[C@@]7(C)O)CC(=C)CCCC7=NC[C@H](C)[C@@H](C)C[C@@]72CC1)O6)O5)C[C@@H](C)[C@@H](O)[C@H]3O4
Activity (PC-3 [1]): inactive
fold change (FC) (PC-3 [2]): 5.5
inhibition at 5 µM (HT-29 [3]): 50%
Activity (HT-29 [4]): Active
Activity (MDA-MB-231 [5]): 14.8%
Activity (HT-29 [6]): 5.5%
inhibition at 5 µM [7]: 50%
inhibition [8]: 16.2%
Activity (PC-3 [9]): 9.7%
Activity (HT-29 [10]): 17.9%
Activity (N2a): inactive
Activity (Caco-2): inactive
fold change (FC) (HT-29 [11]): 10.5
inhibition at 5 µM (MDA-MB-231 [12]): 30%
Activity (PC-3 [13]): 13.8%
Activity (MDA-MB-231 [14]): 13.7%
Activity (U-87 MG [15]): Active
inhibition at 5 µM (LN-18 [16]): 50%
inhibition at 5 µM (U-87 MG [17]): 30%
Activity (MDA-MB-231 [18]): 62.4%
Activity (LN-18 [19]): Active
Activity (PC-3 [20]): Active
Activity (HeLa): 27%
Activity (MDA-MB-231 [21]): inactive
Activity (PC-3 [22]): 65.4%
Activity (HT-29 [23]): 10.7%
Activity (MDA-MB-231 [24]): Active
Activity (HT-29 [25]): 32.5%
Activity (HT-29 [26]): 8%
fold change (FC) (MDA-MB-231 [27]): 5.5
inhibition at 5 µM (PC-3 [28]): 30%
inhibition [29]: 14.2%
Activity (MDA-MB-231 [30]): 4.5%
inhibition [31]: 23.6%
Activity (PC-3 [32]): Active
Activity (MDA-MB-231 [33]): Active
Activity (U-373MG ATCC): Active
Activity (PC-3 [34]): 13.9%
